Experimental data reported in US12195730B2, “High-throughput screening methods to identify small molecule targets” (A-Alpha Bio, Inc., priority 2020, dated 2025).

How the values were obtained:
[1] = target: interaction between FKBP12 and the FRB domain of TOR (Homo sapiens, UniProt P42345+P62942); test: AlphaSeq yeast mating assay, effect of small molecule agonists on FKBP12/FRB interaction; conditions: FIG. 6B; increasing compound concentration correlates with increasing mating efficiency
[2] = target: T1, interaction of IKZF1 with wild-type CRBN (Homo sapiens, UniProt Q96SW2); test: AlphaSeq assay, effect of thalidomide and analogs on wild-type CRBN/IKZF1 interaction; type: cell-based; conditions: FIG. 7B
T1 construct: expressed in transfected cells; host or cells: recombinant haploid yeast cells (surface display)
Source text: (§1) FIG. 7A is a schematic illustrating thalidomide, or its analogs, mediating the interaction between CRBN and IKZF1.

[3] = tested on: interaction of IKZF1 with mutant CRBN; test: AlphaSeq assay, effect of thalidomide and analogs on mutant CRBN/IKZF1 interaction; type: cell-based; conditions: FIG. 7B
Source text: as §1

T1 sequence (Q96SW2 whole entry): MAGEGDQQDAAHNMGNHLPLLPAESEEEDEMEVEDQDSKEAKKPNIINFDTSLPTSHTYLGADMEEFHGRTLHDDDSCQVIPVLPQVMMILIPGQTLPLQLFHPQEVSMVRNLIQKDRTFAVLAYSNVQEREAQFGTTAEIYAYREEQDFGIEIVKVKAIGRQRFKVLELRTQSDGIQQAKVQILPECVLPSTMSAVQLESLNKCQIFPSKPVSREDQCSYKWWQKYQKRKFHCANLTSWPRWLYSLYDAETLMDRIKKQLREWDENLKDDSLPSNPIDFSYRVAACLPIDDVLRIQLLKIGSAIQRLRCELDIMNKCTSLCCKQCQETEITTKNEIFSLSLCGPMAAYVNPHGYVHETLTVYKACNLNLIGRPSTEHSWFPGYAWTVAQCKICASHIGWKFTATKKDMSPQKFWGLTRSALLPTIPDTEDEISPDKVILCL
T1 sequence (Q13422 whole entry partner): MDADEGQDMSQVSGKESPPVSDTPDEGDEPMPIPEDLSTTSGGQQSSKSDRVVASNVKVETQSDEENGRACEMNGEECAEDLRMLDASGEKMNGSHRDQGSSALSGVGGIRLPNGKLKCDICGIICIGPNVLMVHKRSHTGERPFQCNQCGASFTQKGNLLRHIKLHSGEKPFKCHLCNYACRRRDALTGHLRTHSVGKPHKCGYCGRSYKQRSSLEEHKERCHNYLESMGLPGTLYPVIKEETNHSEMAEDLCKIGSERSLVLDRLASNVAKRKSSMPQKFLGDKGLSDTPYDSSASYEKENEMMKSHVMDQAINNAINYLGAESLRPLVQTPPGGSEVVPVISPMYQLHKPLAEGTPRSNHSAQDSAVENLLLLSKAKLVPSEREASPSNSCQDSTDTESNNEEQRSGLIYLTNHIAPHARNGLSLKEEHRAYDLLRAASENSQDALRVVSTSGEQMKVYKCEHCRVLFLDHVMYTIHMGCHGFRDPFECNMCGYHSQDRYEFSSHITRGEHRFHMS
Sequence of interaction between FKBP12 and the FRB domain of TOR (P62942 whole entry, the tested form may be a part): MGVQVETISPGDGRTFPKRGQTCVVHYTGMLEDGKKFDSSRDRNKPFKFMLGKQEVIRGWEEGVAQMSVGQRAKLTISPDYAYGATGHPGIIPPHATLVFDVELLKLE
Sequence of interaction between FKBP12 and the FRB domain of TOR (P42345 2012-2144 limits assumed): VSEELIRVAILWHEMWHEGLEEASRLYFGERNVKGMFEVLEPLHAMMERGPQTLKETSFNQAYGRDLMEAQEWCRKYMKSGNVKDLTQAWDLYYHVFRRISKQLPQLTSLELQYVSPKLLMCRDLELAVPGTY

Structure (SMILES): CO[C@H]1C[C@@H]2CC[C@@H](C)[C@@](O)(O2)C(=O)C(=O)N2CCCC[C@H]2C(=O)O[C@H]([C@H](C)C[C@@H]2CC[C@@H](OCCO)[C@H](OC)C2)CC(=O)[C@H](C)/C=C(\C)[C@@H](O)[C@@H](OC)C(=O)[C@H](C)C[C@H](C)/C=C/C=C/C=C/1C [everolimus]
- effect on the interaction between FKBP12 and the FRB domain (mating efficiency) [1]: agonistic effect

Structure (SMILES): Nc1cccc2c1C(=O)N(C1CCC(=O)NC1=O)C2=O (stereo not drawn) [pomalidomide]
- effect on the interaction of IKZF1 with wild-type CRBN [2]: agonistic effect
- effect on the interaction of IKZF1 with mutant CRBN [3]: not mutant CRBN

Structure (SMILES): CO[C@H]1C[C@@H]2CC[C@@H](C)[C@@](O)(O2)C(=O)C(=O)N2CCCC[C@H]2C(=O)O[C@H]([C@H](C)C[C@@H]2CC[C@@H](OP(C)(C)=O)[C@H](OC)C2)CC(=O)[C@H](C)/C=C(\C)[C@@H](O)[C@@H](OC)C(=O)[C@H](C)C[C@H](C)/C=C/C=C/C=C/1C [ridaforolimus]
- effect on the interaction between FKBP12 and the FRB domain (mating efficiency) [1]: agonistic effect

Structure (SMILES): O=C1CCC(N2C(=O)c3ccccc3C2=O)C(=O)N1 (stereo not drawn) [thalidomide]
- effect on the interaction of IKZF1 with wild-type CRBN [2]: agonistic effect
- effect on the interaction of IKZF1 with mutant CRBN [3]: not mutant CRBN
